Test results taken from ChEMBL document CHEMBL1138157, “Immuno-suppressive effect of blocking the CD28 signaling pathway in T-cells by an active component of Echinacea found by a novel pharmaceutical screening method” (2006).
The source made the active and inactive calls. No cut-off for these calls is given here.

Assays:
Jurkat [1] = assay: Inhibition of anti-CD3 plus anti-CD28-induced IL2 secretion in Jurkat cells; format: functional, Homo sapiens
Jurkat [2] = assay: Inhibition of PMA plus ionomycin-induced IL2 secretion in Jurkat cells; format: functional, cell-based; settings: Homo sapiens
Jurkat [3] = assay: Cytotoxic activity against Jurkat cells upto 500 ug/mL by MTT assay; format: functional, cell-based; settings: Homo sapiens

In the case of O=C(/C=C/c1ccc(O)c(O)c1)O[C@@H]1C[C@@](OC(=O)/C=C/c2ccc(O)c(O)c2)(C(=O)O)C[C@@H](O)[C@@H]1O [CYNARIN], the Inhibition (Jurkat [1]) is reported as -53%, the Activity (Jurkat [2]) is reported as “inactive” and the Activity (Jurkat [3]) is reported as “Non-toxic”.
